Consider one molecule from patent US12098206B2, “PDGF receptor antibody and use thereof” (Seoul National University R&DB Foundation, priority 2018, dated 2024).

Data set [1] has as its system NIH3T3 cells. As to the kind of experiment: cells. The class given is cell-based, mouse. As to conditions: Mus musculus, NIH3T3, 72 h, NIH3T3 cells, 72 hours. Here is the method:
NIH3T3 cells were added to 50 μL of DMEM supplemented with 10% FBS and 1% penicillin/streptomycin, placed in a 96-well plate (CLS3595, Corning) and incubated overnight in 5% CO2 at 37° C. incubator. In each well containing 50 μL of cells, 50 μL of 50 anti-PDGFR-β x cotinine scFv-Cκ-scFv fusion protein (25.6 pM-2 μM) complexed with cot-duo or cot-duo-cot obtained in Experimental Example 10 was added and incubated for 72 hours in 5% CO2 at 37° C. incubator. To test mPDGF-BB on the toxic effect of the bispecific antibody of scFv-Cκ-scFv and the cotinine-duocarmycin complex, mPDGF-BB (2 nM) was added together with 50 μL of the bispecific antibody scFv-Cκ-scFv and the cotinine-duocarmycin complex. The mixed complexes were added to 50 μL of NIH3T3 cells.
The bispecific antibody of anti-HER2 x cotinine scFv-Cκ-scFv was used as a control. After 72 hours of incubation in the cells, 100 μL of Cell Titer-Glo reagents (Promega Corp., Madison, WI, USA) were added to all wells according to the manufacturer's instructions, and luminescence was measured in a luminometer (PerkinElmer, Waltham, MA, USA). The experiment was repeated 3 times. Relative viability was calculated with the following formula: [% viability=(luminescence of experimental well-luminescence of background well)/(luminescence of control-luminescence of background well)×100]. The wells containing only new medium were used as background wells.
To evaluate the toxicity of the complex of anti-mPDGFR-B x cotinine scFv-Cκ-scFv bispecific antibodies and cotinine duocarmycin (cot-duo, cot-duo-cot), the complexes were added to NIH3T3 cells in the presence/absence of mPDGF-BB. The ATP of the cells was measured for relative cell viability. The toxicity of the bispecific antibody of scFv-Cκ-scFv fusion antibody was shown by IC50 in Table 6 and FIG. 5.
It was carried out in the same manner as in Example 7, except that the bispecific antibody related with the anti-mPDGFR-β antibody and the bispecific antibody related with the anti-hPDGFR-β antibody prepared in Example 10 were used. FIG. 20a to FIG. 20b are graphs showing the difference in cytotoxic activity of PRb-CN01 and PRb-CN32 bispecific antibodies and cotinine-duocarmycin complexes in the cells expressing PDGFR-β. In FIG. 20b, an experiment was repeated in the presence of mPDGF-BB.

The conditions of data set [2]: mice; conventional studies; cited from earlier work.

Like-named read-outs stand apart in the source and are kept apart here.

As to `COC(=O)c1cc2c([nH]1)C(=O)C=C1N(C(=O)c3cc4cc(OC)c(OC)c(OC)c4[nH]3)C[C@H]3C[C@]123` [Free duocarmycin, duocarmycin, reference compound], the IC50 in data set [1] (read-out: Cot-duo IC50 (nM), complex with cot-duo (DAR4), or conjugate/free drug alone, with mPDGF-BB (2 nM)) turned out to be 23.8 nM; in data set [1] (read-out: Cot-duo IC50 (nM), complex with cot-duo (DAR4), or conjugate/free drug alone, without mPDGF-BB), 9.7 nM; in data set [1] (read-out: Cot-duo-cot IC50 (nM), complex with cot-duo-cot (DAR2), or conjugate/free drug alone, with mPDGF-BB (2 nM)), 60.3 nM; in data set [1] (read-out: Cot-duo-cot IC50 (nM), complex with cot-duo-cot (DAR2), or conjugate/free drug alone, without mPDGF-BB) it was 35.7 nM. The weight loss result in data set [2] was “induced significantly weight loss”.
